This assay addresses T1, transthyretin tetramer (Homo sapiens, UniProt P02766).
T1 construct: from tissue; host or cells: human serum from three middle-aged and older persons
The assay is described as follows: Stabilization Test 1 of Transthyretin Tetramer (serum, urea denaturation, electrophoresis and Western blotting). The format is biochemical. The following applies: glabridin alone added at concentrations up to 50 μM. Here is the method: Serums were obtained from blood taken from three middle-aged and older persons. […] The resulting mixtures were incubated at 25° C. for 30 minutes, and then denatured with urea. Using these samples, the transthyretins (the tetramers, the dimers, and the monomers) in the serum were quantitated by electrophoresis and Western blotting. The stabilization effect was investigated using the ratio of the monomers (monomer) to the total amounts of the transthyretins (total) (monomer/total) and the ratio of the tetramers (tetramer) to the total amounts of the transthyretins (total) (tetramer/total). The analysis results of the monomer/total ratio are shown in the left of FIG. 1. The analysis results of the tetramer/total ratio are shown in the right of FIG. 1.
A general note: A western blot detects proteins with antibodies after separation by electrophoresis.

The mark [1] stands for this setting: serum of three middle-aged and older persons, 25° C. 30 minutes, then denatured with urea.

Regarding `CC1(C)C=Cc2c(ccc3c2OC[C@@H](c2ccc(O)cc2O)C3)O1` [glabridin], under setting [1], the “ratio of the monomers to the total amounts of the transthyretins (monomer/total)” value is “did not change” and the “ratio of the tetramers to the total amounts of the transthyretins (tetramer/total)” value is recorded as “did not increase”. Moreover, the “stabilization effect for the transthyretin” value (serum) is recorded as “not observed”.
